From patent US11696916B2, “Carboxamide-pyrimidine derivatives as SHP2 antagonists” (Merck Patent GmbH, priority 2019, dated 2023) come the findings set out here.

Data set [1] is described as follows: Pharmacokinetics in mouse. It is filed as in vivo. The conditions noted are these: for Cmax Normalized to 1 mgk / AUC (normalized 1 mpk): female CD1 mice; for Cmax Normalized to 1 mgk: normalized to 1 mg/kg; for AUC (normalized 1 mpk): normalized to 1 mpk; for Exposure compared to SHP-099: mouse PK. On the procedure:
Female CD1 mice (N=3) received a single oral (gavage) or a single intravenous (bolus) injection of compound. […] Consecutive blood samples were taken sub-lingually under isofluorane inhalation from animals after 0.083 (IV), 0.25, 0.5, 1, 2, 4, 6 and 24 h and were further processed to obtain plasma. Samples were protein precipitated and analyzed by LC/MS/MS.

The test system of data set [2] is pERK level in KYSE520 cells. Put plainly: p-Erk cellular assay in KYSE520 (Mesoscale). The conditions noted are these: Homo sapiens, KYSE-520, 2 h, 2 h compound incubation, read-out: pERK1/2 in KYSE520 IC50. It is filed as cell-based. On the procedure: The effect of SHP2 inhibitors on pERK level was assessed using phospho-specific antibody using Mesoscale quantification platform. For measuring change in pERK levels using mesoscale, 30,000 cells of MDA MB468 and KYSE520 cells were plated in 96-well tissue culture treated plate in 175 ul volume of media. After an overnight incubation at 37° C., various SHP2 inhibitors were added in different concentration to each well maintaining duplicate wells across plates and incubated with compounds for 2 h at 37° C. followed by a wash with ice cold PBS buffer. The cells were then lysed in lysis buffer and processed and analyzed for p-ERK/ERK as per manufacturer's instructions (Mesoscale discovery, cat No. K15107D-3).

The target in data set [3] is Full length SHP2 protein (Recombinant Human SHP-2) (Homo sapiens (Human), UniProt Q06124). Put plainly: SHP2 biochemical assay (DiFMUP, activating peptide IRS1_2pY). The conditions noted are these: DiFMUP substrate, 60 min RT. On the procedure:
The inhibition of SHP2 by compounds of the invention was monitored using the surrogate substrate DiFMUP after protein activation by a peptide bearing two appropriately spaced phosphotyrosine. […] The generation of the DiFMU product by activated SHP2 was monitored through Fluorescence measurement with a PerkinElmer Envision reader. The inhibitor dose response curves were analyzed with Genedata Screener.

Chain of Full length SHP2 protein (Recombinant Human SHP-2) (Q06124 2-593): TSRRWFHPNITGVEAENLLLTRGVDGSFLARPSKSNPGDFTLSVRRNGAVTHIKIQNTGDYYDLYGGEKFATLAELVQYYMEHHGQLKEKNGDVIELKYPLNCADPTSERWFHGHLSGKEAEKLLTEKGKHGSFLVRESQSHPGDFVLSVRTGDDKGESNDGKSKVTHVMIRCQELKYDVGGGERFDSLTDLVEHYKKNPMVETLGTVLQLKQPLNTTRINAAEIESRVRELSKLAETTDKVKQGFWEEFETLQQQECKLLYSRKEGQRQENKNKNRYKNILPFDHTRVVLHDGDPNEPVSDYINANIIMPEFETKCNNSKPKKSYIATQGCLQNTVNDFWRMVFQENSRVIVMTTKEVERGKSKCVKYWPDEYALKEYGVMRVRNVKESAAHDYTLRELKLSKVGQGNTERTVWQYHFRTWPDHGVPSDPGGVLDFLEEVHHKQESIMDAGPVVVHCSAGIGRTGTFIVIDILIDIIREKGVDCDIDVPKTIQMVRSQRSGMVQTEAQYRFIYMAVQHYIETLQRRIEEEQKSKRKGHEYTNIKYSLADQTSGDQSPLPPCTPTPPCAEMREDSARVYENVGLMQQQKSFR

With `CC1(N)CCN(c2nc(N)c(-c3cccc(Cl)c3Cl)c(C(N)=O)n2)CC1` [Compound 27, (4P)-6-amino-2-(4-amino-4-methylpiperidin-1-yl)-5-(2,3-dichlorophenyl)pyrimidine-4-carboxamide], in data set [1], the “Cmax Normalized to 1 mgk” value is listed as 48 ng/mL, the “AUC (normalized 1 mpk)” value was determined as 230 ng·h/mL and the “Exposure compared to SHP-099” value was “higher exposure”.
Consider `Cc1nc(N2CCC3(CC2)Oc2ncccc2[C@H]3N)nc(C(N)=O)c1-c1cccc(Cl)c1Cl` [Compound 124, (4M)-2-[(3R)-3-amino-3H-spiro[furo[2,3-b]pyridine-2,4′-piperidin]-1′-yl]-5-(2,3-dichlorophenyl)-6-methylpyrimidine-4-carboxamide], for which the IC50 in data set [2] is 268 nM.
In the case of `NC(=O)c1nc(N2CCC3(CC2)Oc2ncccc2[C@@H]3N)nc(N)c1-c1cccc(Cl)c1Cl` (atropisomer, axis not shown; (M)) [Compound 130, (4M)-6-amino-2-[(3R)-3-amino-3H-spiro[furo[2,3-b]pyridine-2,4-piperidin]-1-yl]-5-(2,3-dichlorophenyl)pyrimidine-4-carboxamide], in data set [2], the IC50 was 2240 nM.
`CC1(N)CCN(c2cnc(-c3cccc(Cl)c3Cl)c(N)n2)CC1` [SHP-099, SHP099, reference compound]: in data set [1], the “Cmax Normalized to 1 mgk” value worked out at 48 ng/mL and the “AUC (normalized 1 mpk)” value was 129 ng·h/mL.
For `Cc1nc(N2CCC3(CC2)CC(F)(F)C[C@H]3N)nc(C(N)=O)c1-c1cccc(Cl)c1Cl` (atropisomer, axis not shown; (M)) [Compound 96, (5M)-2-[(1R)-1-amino-3,3-difluoro-8-azaspiro[4.5]decan-8-yl]-5-(2,3-dichlorophenyl)-6-methylpyrimidine-4-carboxamide], the IC50 in data set [3] amounted to 62 nM.
Take `Cc1nc(N2CCC3(CC2)Cc2ccccc2[C@H]3N)nc(C(N)=O)c1-c1cccc(Cl)c1Cl` (atropisomer, axis not shown; (M)) [Compound 119, (M)-2-[(1S)-1-amino-1,3-dihydrospiro[indene-2,4′-piperidin]-1′-yl]-5-(2,3-dichlorophenyl)-6-methylpyrimidine-4-carboxamide]: in data set [2], the IC50 is 21 nM.
As for `NC(=O)c1nc(N2CCC3(CC2)Cc2ccccc2[C@H]3N)nc(N)c1-c1cccc(Cl)c1Cl` (atropisomer, axis not shown; (M)) [Compound 118, (5M)-6-amino-2-[(1S)-1-amino-1,3-dihydrospiro[indene-2,4′-piperidin]-1′-yl]-5-(2,3-dichlorophenyl)pyrimidine-4-carboxamide], in data set [2], the IC50 was 114 nM.
On to `Cc1nc(N2CCC3(CC2)CO[C@@H](C)[C@H]3N)nc(C(N)=O)c1-c1cccc(Cl)c1Cl` (single isomer, unassigned) [Compound 95], for which, in data set [1], the “Cmax Normalized to 1 mgk” value is recorded as 150 ng/mL, the “AUC (normalized 1 mpk)” value came to 1214 ng·h/mL and the “Exposure compared to SHP-099” value is “higher exposure”.
For `C[C@@H]1OCC2(CCN(c3nc(N)c(-c4cccc(Cl)c4Cl)c(C(N)=O)n3)CC2)[C@@H]1N` (atropisomer, axis not shown; (M)) [Compound 67, (5M)-6-amino-2-[(3S,4S)-4-amino-3-methyl-2-oxa-8-azaspiro[4.5]decan-8-yl]-5-(2,3-dichlorophenyl)pyrimidine-4-carboxamide], the IC50 in data set [3] came out at 16000 nM.
Consider `NC(=O)c1nc(N2CCC3(CC2)Cc2ccccc2[C@H]3N)nc(N)c1-c1cccc(Cl)c1Cl` (single isomer, unassigned) [Compound 117], for which, in data set [2], the IC50 stood at 1 nM.
With `C[C@@H]1OCC2(CCN(c3nc(N)c(-c4cccc(Cl)c4Cl)c(C(N)=O)n3)CC2)[C@@H]1N` (atropisomer, axis not shown; (P)) [Compound 66, (5P)-6-amino-2-[(3S,4S)-4-amino-3-methyl-2-oxa-8-azaspiro[4.5]decan-8-yl]-5-(2,3-dichlorophenyl)pyrimidine-4-carboxamide], the IC50 in data set [3] is 52 nM.
For `NC(=O)c1nc(N2CCC3(CC2)Oc2ncccc2C3N)nc(N)c1-c1cccc(Cl)c1Cl` (single isomer, unassigned) [Compound 128], in data set [2], the IC50 was determined as 161 nM.
On to `Cc1nc(N2CCC3(CC2)CC(F)(F)C[C@H]3N)nc(C(N)=O)c1-c1cccc(Cl)c1Cl` (atropisomer, axis not shown; (P)) [Compound 97, (5P)-2-[(1R)-1-amino-3,3-difluoro-8-azaspiro[4.5]decan-8-yl]-5-(2,3-dichlorophenyl)-6-methylpyrimidine-4-carboxamide], for which, in data set [3], the IC50 came out at 4400 nM.
